From paper PMC3724985, “Isolation, biochemical characterization, and cloning of a bacteriocin from the poultry-associated Staphylococcus aureus strain CH-91” (Applied Microbiology and Biotechnology, 2012)

How the values were obtained:
[1] = test system: Pseudomonas aeruginosa ATCC 27853; assay type: cell-based
[2] = test system: staphylococcal strains; assay type: cell-based, Staphylococcus spp.
Text: S. aureus CH-91 was kindly provided by S. Takeuchi from Fukui Prefectural University, Japan (Takeuchi et al. [1999]). The strain has been deposited in the DSMZ collection under the number DSM 26258. Bacillus licheniformis NCTC 7224, Bacillus subtilis ATCC 6633, Lactococcus lactis subsp. lactis LOCK 0869, Micrococcus luteus strains DSMZ 20030 and CBM (clinical isolate), Sarcina lutea ATCC 9341, S. aureus strains ATCC 25923, M-122 (Polakowska et al. [2012]), Newman and RN4220, S. epidermidis ATCC 35347, Staphylococcus intermedius ATCC 29666, Staphylococcus pseudintermedius LMG 22219 (Devriese et al. [2005]), Staphylococcus saprophyticus ATCC 49453, Staphylococcus xylosus strains isolated from the skin of healthy chickens, Streptococcus mutans ATCC 25175, Streptococcus pneumoniae ATCC 49619, Escherichia coli K12 ATCC 10798, Klebsiella pneumoniae, Serratia marcescens, and Sphingomonas sp. AMC 3962 (Dziga et al. [2012]) were obtained from the collections of The Faculty of Biochemistry, Biophysics and Biotechnology, Jagiellonian University, Krakow, Poland. […]
The bactericidal activity of BacCH91 was determined using the micro-dilution method in compliance with Clinical and Laboratory Standards Institute guidelines M7-A7 (CLSI [2006]). […] After overnight incubation at 37 °C, the optical density (OD) at 600 nm was measured. […]

[3] = pH stability, residual activity by radial diffusion assay; assay type: physicochemical; conditions: 30 μM, S. lutea ATCC 9341, triplicate
Experimental: (§1) To test the pH stability of BacCH91, a water solution of the bacteriocin (final concentration, 30 μM) was evaporated in a vacuum centrifuge and re-dissolved in (a) 100 mM sodium citrate pH 3.0, 4.0, 5.0, and 6.0; […] The solutions were incubated for 3 h at RT, and the residual activity of the bacteriocin was determined using the radial diffusion assay. The temperature stability of BacCH91 (30 μM final concentration) was determined in 50 mM Tris–HCl pH 7.4, 0.15 M NaCl and 50 mM bis-Tris pH 6.4, 0.15 M NaCl. The solutions were incubated for 1, 6, and 24 h at 37, 60, 80, and 99 °C. […] All of the above experiments were performed in triplicate. The final results are presented as means ± SD.

[4] = assay type: physicochemical; conditions: 30 μM, radial diffusion assay, S. lutea
Experimental: as §1

[5] = test system: staphopain C (StpC); conditions: 30 μM, 100 mM bis-Tris pH 6.4 or Tris–HCl pH 7.5 with 5 mM cysteine hydrochloride and 5 mM EDTA, 1:20 by weight, 1 h at 37 °C; radial diffusion assay and HPLC
Experimental: (§2) For pH, temperature, and protease resistance assays, the residual activity of BacCH91 was determined using the radial diffusion assay (Lemos Miguel et al. [2008]). In brief, plates were prepared containing 200× diluted overnight culture of S. lutea ATCC 9341 in TSB agar (1 %, w/v). Wells (2.4 mm diameter) were cut in the agar and filled with 10 μl of the BacCH91 preparation for testing. Following overnight incubation at 37 °C, the residual activity was measured as the diameter of inhibition zones.
(§3) We evaluated the susceptibility of BacCH91 to proteolysis by aureolysin; staphopains A, B, and C; V8 peptidase (Biocentrum); bovine alpha-chymotrypsin and TPCK-treated trypsin (Sigma); human elastase and cathepsin G (Biocentrum); pepsin from porcine gastric mucosa (Sigma); and proteinase K (A&A Biotechnology). […] The residual activity was determined with the radial diffusion assay using S. lutea as an indicator strain, and the bacteriocin molecule integrity was assessed using HPLC. […]

[6] = test system: staphylococcal extracellular peptidases (aureolysin; staphopains A, B, and C; V8 peptidase); conditions: 30 μM, pH 6.4 or pH 7.5/7.8, enzyme/bacteriocin 1:20 by weight, 1 h at 37 °C; radial diffusion assay and HPLC; triplicate
Experimental: as §2, §3

C/C=C(\NC(=O)[C@H](CCCCN)NC(=O)CNC(=O)[C@@H]1CS[C@@H](C)[C@@H](NC(=O)[C@@H]2CSC[C@@H](NC(=O)/C(=C/C)NC(=O)[C@@H](N)[C@@H](C)CC)C(=O)N[C@@H](Cc3ccccc3)C(=O)N[C@@H]([C@@H](C)CC)C(=O)NCC(=O)N2)C(=O)N2CCC[C@H]2C(=O)NCC(=O)N1)C(=O)NCC(=O)N[C@@H]1CSC[C@@H]2NC(=O)[C@H](Cc3ccccc3)NC(=O)[C@@H](CS/C=C\NC2=O)NC(=O)[C@H](CC(N)=O)NC(=O)[C@H](Cc2ccccc2)NC1=O [BacCH91]
MIC [1]: >100 µM
MIC [2]: 1.3 to 6.0 µM
residual bactericidal activity after incubation at pH 11.0 ([3]; 100 mM 3-cyclohexylamino-1-propanesulphonic acid-NaOH pH 11.0, 3 h at RT): complete inactivation
residual bactericidal activity after incubation at pH 7.0 and higher ([3]; 100 mM Tris–HCl pH 7.0, 8.0, 9.0 and 100 mM CAPS-NaOH pH 10.0, 11.0, 3 h at RT): gradual loss of bactericidal activity
residual bactericidal activity after incubation at pH 3.0–6.0 ([3]; 100 mM sodium citrate pH 3.0, 4.0, 5.0, 6.0, 3 h at RT): retained full bactericidal activity
residual activity after 1 h at temperatures up to 80 °C ([4]; 50 mM Tris–HCl pH 7.4, 0.15 M NaCl and 50 mM bis-Tris pH 6.4, 0.15 M NaCl, 37, 60, 80 °C, 1 h, triplicate): maintained its activity
residual activity after several hours at temperatures higher than 60 °C ([4]; pH 6.4 and pH 7.4 buffers with 0.15 M NaCl, 6 and 24 h time points, triplicate): complete inactivation
activity retained during incubation for 1 h at 80 °C ([4]; pH 6.4 and pH 7.4 buffers with 0.15 M NaCl, 80 °C, 1 h): ~100%
residual activity after short incubation at 99 °C ([4]; pH 6.4 and pH 7.4 buffers with 0.15 M NaCl, 99 °C, triplicate): complete inactivation
effect of StpC on BacCH91 [5]: not affected
effect of staphylococcal peptidases on BacCH91 [6]: not affected
